For 34 compounds, Ki and Ratio results are on record in ChEMBL document CHEMBL1134175, “Nipecotic and iso-nipecotic amides as potent and selective somatostatin subtype-2 receptor agonists” (Bioorg Med Chem Lett, 2001).

For assay [1], the target named is T1, Somatostatin receptor type 2 (Homo sapiens, UniProt P30874). Nature of the assay: Binding affinity to human somatostatin 2 receptor.
Assay [2] concerns the target Somatostatin receptor type 5 (Homo sapiens, UniProt P35346). The assay can be described thus: Binding affinity to hsst5 was determined.
The target in assay [3] is T1, Somatostatin receptor type 2. Nature of the assay: Binding affinity to Somatostatin receptor type 2 was determined.
Assay [4] is described as follows: Ratio of binding affinity of h5 to that of binding affinity of h2.
Assay [5] concerns the target Somatostatin receptor type 3 (Homo sapiens, UniProt P32745). The assay can be described thus: Binding affinity to hsst3 was determined.

T1 sequence (P30874 whole entry): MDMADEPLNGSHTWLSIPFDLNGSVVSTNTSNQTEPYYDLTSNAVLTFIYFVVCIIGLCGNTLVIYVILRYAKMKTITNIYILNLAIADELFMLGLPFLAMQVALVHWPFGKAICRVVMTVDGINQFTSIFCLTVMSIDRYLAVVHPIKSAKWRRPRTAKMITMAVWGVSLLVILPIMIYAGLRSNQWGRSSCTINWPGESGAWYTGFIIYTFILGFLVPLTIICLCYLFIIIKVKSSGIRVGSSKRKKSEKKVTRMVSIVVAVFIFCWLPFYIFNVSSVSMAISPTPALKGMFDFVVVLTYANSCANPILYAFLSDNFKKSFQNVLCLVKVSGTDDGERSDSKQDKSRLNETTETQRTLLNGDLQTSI
Somatostatin receptor type 3, sequence (P32745 whole entry): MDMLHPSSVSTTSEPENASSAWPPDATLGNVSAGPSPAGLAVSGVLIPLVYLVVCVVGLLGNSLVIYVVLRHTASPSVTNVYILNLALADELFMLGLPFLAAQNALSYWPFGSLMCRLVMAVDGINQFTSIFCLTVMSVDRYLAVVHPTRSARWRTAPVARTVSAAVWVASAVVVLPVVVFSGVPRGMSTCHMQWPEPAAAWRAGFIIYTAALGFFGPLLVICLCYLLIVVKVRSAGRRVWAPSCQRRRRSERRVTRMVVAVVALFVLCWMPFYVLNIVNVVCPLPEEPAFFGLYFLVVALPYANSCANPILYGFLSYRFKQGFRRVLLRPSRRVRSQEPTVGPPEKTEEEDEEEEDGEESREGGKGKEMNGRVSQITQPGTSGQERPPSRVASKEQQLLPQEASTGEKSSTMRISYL
Somatostatin receptor type 5, sequence (P35346 whole entry): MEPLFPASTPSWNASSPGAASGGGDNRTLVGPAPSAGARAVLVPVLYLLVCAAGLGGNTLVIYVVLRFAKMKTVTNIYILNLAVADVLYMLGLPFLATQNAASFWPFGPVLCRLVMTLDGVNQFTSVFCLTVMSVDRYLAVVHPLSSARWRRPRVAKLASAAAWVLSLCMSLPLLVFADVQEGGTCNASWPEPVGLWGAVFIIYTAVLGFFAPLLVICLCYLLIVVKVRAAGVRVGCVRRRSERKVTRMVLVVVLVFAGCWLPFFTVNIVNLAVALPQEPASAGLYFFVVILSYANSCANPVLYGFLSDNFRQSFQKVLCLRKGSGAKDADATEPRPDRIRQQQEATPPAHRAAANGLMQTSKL

`C[C@@H](c1c[nH]c2ccccc12)C(NC(=O)C1CCCN(C(=O)C(c2ccccc2)c2ccccc2)C1)C(=O)N[C@@H](CCCCN)C(=O)OC(C)(C)C` (stereo not given in full) gave a Ki in assay [1] of 5 nM.

`C[C@@H](c1c[nH]c2ccccc12)C(NC(=O)C1CCCN(S(=O)(=O)c2cccs2)C1)C(=O)N[C@@H](CCCCN)C(=O)OC(C)(C)C` (stereo not given in full) returned an inhibitory constant (Ki) in assay [1] of 14 nM.

On to `CC(C)S(=O)(=O)N1CCC(C(=O)NC(C(=O)N[C@@H](CCCCN)C(=O)OC(C)(C)C)[C@@H](C)c2c[nH]c3ccccc23)CC1` (stereo not given in full), for which the Ki in assay [2] was greater than 10000 nM; in assay [3], 120 nM; in assay [5], 3750 nM. Moreover, the Ratio in assay [4] is greater than 83.

`C[C@@H](c1c[nH]c2ccccc12)C(NC(=O)C1CCCN(Cc2cccc(F)c2F)C1)C(=O)N[C@@H](CCCCN)C(=O)OC(C)(C)C` (stereo not given in full) yielded an inhibition constant (Ki) in assay [1] of 5.7 nM.

Take `C[C@@H](c1c[nH]c2ccccc12)C(NC(=O)C1CCCN(C(=O)Nc2ccccc2)C1)C(=O)N[C@@H](CCCCN)C(=O)OC(C)(C)C` (stereo not given in full): the affinity in assay [1] corresponds to a Ki of 11 nM.

The compound `COC(=O)c1cccc(CN2CCCC(C(=O)NC(C(=O)N[C@@H](CCCCN)C(=O)OC(C)(C)C)[C@@H](C)c3c[nH]c4ccccc34)C2)c1` (stereo not given in full) came in with a Ki in assay [1] of 11 nM.

Regarding `C[C@@H](c1c[nH]c2ccccc12)C(NC(=O)C1CCCN(Cc2ccccc2)C1)C(=O)N[C@@H](CCCCN)C(=O)OC(C)(C)C` (stereo not given in full), the inhibitory constant (Ki) in assay [1] was 4.6 nM.

Compound `C[C@@H](c1c[nH]c2ccccc12)C(NC(=O)C1CCCN(C(=O)C(O)(c2ccccc2)c2ccccc2)C1)C(=O)N[C@@H](CCCCN)C(=O)OC(C)(C)C` (stereo not given in full) returned an inhibition constant Ki in assay [1] of 2.8 nM.

In the case of `C[C@@H](c1c[nH]c2ccccc12)C(NC(=O)C1CCCN(C(c2ccccc2)c2ccccc2)C1)C(=O)N[C@@H](CCCCN)C(=O)OC(C)(C)C` (stereo not given in full), in assay [1], the inhibition constant Ki came out at 31 nM.

Regarding `COc1cccc(NC(=O)N2CCCC(C(=O)NC(C(=O)N[C@@H](CCCCN)C(=O)OC(C)(C)C)[C@@H](C)c3c[nH]c4ccccc34)C2)c1` (stereo not given in full), in assay [1], the affinity, expressed as Ki, was 9 nM.

As to `C[C@@H](c1c[nH]c2ccccc12)C(NC(=O)C1CCCN(S(=O)(=O)c2ccc(F)cc2)C1)C(=O)N[C@@H](CCCCN)C(=O)OC(C)(C)C` (stereo not given in full), the affinity in assay [1], expressed as Ki, was 11 nM.

With `COC(=O)[C@H](Cc1ccccc1)NC(=O)N1CCCC(C(=O)NC(C(=O)N[C@@H](CCCCN)C(=O)OC(C)(C)C)[C@@H](C)c2c[nH]c3ccccc23)C1` (stereo not given in full), the affinity in assay [1], expressed as Ki, was 8.6 nM.

As for `C[C@@H](c1c[nH]c2ccccc12)C(NC(=O)C1CCCN(Cc2ccc3ccccc3c2)C1)C(=O)N[C@@H](CCCCN)C(=O)OC(C)(C)C` (stereo not given in full), the inhibitory constant (Ki) in assay [1] was determined as 17 nM.

Compound `COc1cccc(CN2CCCC(C(=O)NC(C(=O)N[C@@H](CCCCN)C(=O)OC(C)(C)C)[C@@H](C)c3c[nH]c4ccccc34)C2)c1` (stereo not given in full) yielded a Ki in assay [1] of 10 nM.

In turn, `C[C@@H](c1c[nH]c2ccccc12)C(NC(=O)C1CCCN(C(=O)c2ccc3[nH]cnc3c2)C1)C(=O)N[C@@H](CCCCN)C(=O)OC(C)(C)C` (stereo not given in full) had an inhibitory constant (Ki) in assay [1] of 85 nM.

In turn, `C[C@@H](c1c[nH]c2ccccc12)C(NC(=O)C1CCCN(C(=O)NC2CCCCC2)C1)C(=O)N[C@@H](CCCCN)C(=O)OC(C)(C)C` (stereo not given in full) registered a Ki in assay [1] of 7.2 nM.

`CC(C)CC(=O)N1CCCC(C(=O)NC(C(=O)N[C@@H](CCCCN)C(=O)OC(C)(C)C)[C@@H](C)c2c[nH]c3ccccc23)C1` (stereo not given in full) returned an inhibitory constant (Ki) in assay [1] of 23 nM.

As for `C[C@@H](c1c[nH]c2ccccc12)C(NC(=O)C1CCCN(C(=O)c2cccnc2)C1)C(=O)N[C@@H](CCCCN)C(=O)OC(C)(C)C` (stereo not given in full), the Ki in assay [1] came out at 85 nM.

As to `C[C@@H](c1c[nH]c2ccccc12)C(NC(=O)C1CCCN(C(=O)Cc2cc(F)cc(F)c2)C1)C(=O)N[C@@H](CCCCN)C(=O)OC(C)(C)C` (stereo not given in full), the inhibitory constant (Ki) in assay [1] turned out to be 2.3 nM.

Take `C[C@@H](c1c[nH]c2ccccc12)C(NC(=O)C1CCCN(Cc2ccc3c(c2Cl)OCO3)C1)C(=O)N[C@@H](CCCCN)C(=O)OC(C)(C)C` (stereo not given in full): the Ki in assay [1] amounted to 12 nM.

In assay [1], `CC(C)S(=O)(=O)N1CCCC(C(=O)NC(C(=O)N[C@@H](CCCCN)C(=O)OC(C)(C)C)[C@@H](C)c2c[nH]c3ccccc23)C1` (stereo not given in full) returned a Ki of 35 nM.

As to `C[C@@H](c1c[nH]c2ccccc12)C(NC(=O)C1CCCN(C(=O)c2ccc3c(c2)OCO3)C1)C(=O)N[C@@H](CCCCN)C(=O)OC(C)(C)C` (stereo not given in full), in assay [1], affinity was put at a Ki of 36 nM.

For `C[C@@H](c1c[nH]c2ccccc12)C(NC(=O)C1CCN(Cc2ccccc2)CC1)C(=O)N[C@@H](CCCCN)C(=O)OC(C)(C)C` (stereo not given in full), the Ki was determined as 333 nM in assay [2] and 2.5 nM in assay [3]. In addition, the Ratio in assay [4] is 133.

`C[C@@H](c1c[nH]c2ccccc12)C(NC(=O)C1CCCN(C(=O)Cc2ccc3c(c2)OCO3)C1)C(=O)N[C@@H](CCCCN)C(=O)OC(C)(C)C` (stereo not given in full): the Ki in assay [1] turned out to be 10 nM.

As to `COc1ccc(S(=O)(=O)N2CCCC(C(=O)NC(C(=O)N[C@@H](CCCCN)C(=O)OC(C)(C)C)[C@@H](C)c3c[nH]c4ccccc34)C2)cc1OC` (stereo not given in full), the Ki in assay [1] was determined as 23 nM.

As to `C[C@@H](c1c[nH]c2ccccc12)C(NC(=O)C1CCCNC1)C(=O)N[C@@H](CCCCN)C(=O)OC(C)(C)C` (stereo not given in full), the inhibition constant (Ki) in assay [1] worked out at 178 nM.

In assay [1], `C[C@@H](c1c[nH]c2ccccc12)C(NC(=O)C1CCCN(Cc2cccc(F)c2)C1)C(=O)N[C@@H](CCCCN)C(=O)OC(C)(C)C` (stereo not given in full) had an inhibition constant (Ki) of 5 nM.

Take `CC(=O)Nc1cccc(C(=O)N2CCCC(C(=O)NC(C(=O)N[C@@H](CCCCN)C(=O)OC(C)(C)C)[C@@H](C)c3c[nH]c4ccccc34)C2)c1` (stereo not given in full): the affinity in assay [1], expressed as Ki, was 47 nM.

On to `C[C@@H](c1c[nH]c2ccccc12)C(NC(=O)C1CCN(C(=O)c2ccccc2)CC1)C(=O)N[C@@H](CCCCN)C(=O)OC(C)(C)C` (stereo not given in full), for which the inhibition constant (Ki) came out at 416 nM in assay [2], 0.5 nM in assay [3] and 2660 nM in assay [5]. The Ratio in assay [4] came out at 832.

Take `CC(C)NC(=O)N1CCCC(C(=O)NC(C(=O)N[C@@H](CCCCN)C(=O)OC(C)(C)C)[C@@H](C)c2c[nH]c3ccccc23)C1` (stereo not given in full): in assay [1], the inhibition constant (Ki) came to 95 nM.

Regarding `CC(C)C(=O)N1CCC(C(=O)NC(C(=O)N[C@@H](CCCCN)C(=O)OC(C)(C)C)[C@@H](C)c2c[nH]c3ccccc23)CC1` (stereo not given in full), the Ki in assay [2] was found to be 2860 nM; in assay [3] it was 15 nM; in assay [5] it was 5250 nM. Further, the Ratio in assay [4] was 190.

`C[C@@H](c1c[nH]c2ccccc12)C(NC(=O)C1CCCN(C(=O)c2ccccc2)C1)C(=O)N[C@@H](CCCCN)C(=O)OC(C)(C)C` (stereo not given in full) showed a Ki in assay [1] of 10 nM.

Turning to `C[C@@H](c1c[nH]c2ccccc12)C(NC(=O)C1CCCN(Cc2ccc(F)c(F)c2)C1)C(=O)N[C@@H](CCCCN)C(=O)OC(C)(C)C` (stereo not given in full), in assay [1], affinity was put at a Ki of 2.9 nM.

Regarding `C[C@@H](c1c[nH]c2ccccc12)C(NC(=O)C1CCCN(Cc2ccccc2-c2ccccc2)C1)C(=O)N[C@@H](CCCCN)C(=O)OC(C)(C)C` (stereo not given in full), the Ki in assay [1] is 21 nM.

What is called Ki is a measure of affinity in units of concentration, obtained from inhibition or displacement. Read a high Ki as a looser hold on the target.
